Test results taken from patent US12281080B2, “Quinoline-based compounds and methods of inhibiting CDK8/19” (University of South Carolina, priority 2018, dated 2025).

Columns and labels:
AKT2 = AKT2 (Homo sapiens (Human), UniProt P31751); assay: KINOMEscan scanMAX; type: binding; details: 2000 nM; read-out: Percent Control
CDK9 = CDK9 (Homo sapiens (Human), UniProt P50750); assay: KINOMEscan scanMAX; type: binding; details: 2000 nM; read-out: Percent Control
CSNK1A1L = CSNK1A1L (Homo sapiens (Human), UniProt Q8N752); assay: KINOMEscan scanMAX; type: binding; details: 2000 nM; read-out: Percent Control
DAPK1 = DAPK1 (Homo sapiens (Human), UniProt P53355); assay: KINOMEscan scanMAX; type: binding; details: 2000 nM; read-out: Percent Control
DCAMKL3 (DCLK3) = DCAMKL3 (DCLK3) (Homo sapiens (Human), UniProt Q9C098); assay: KINOMEscan scanMAX; type: binding; details: 2000 nM; read-out: Percent Control
DRAK2 (STK17B) = DRAK2 (STK17B) (Homo sapiens (Human), UniProt O94768); assay: KINOMEscan scanMAX; type: binding; details: 2000 nM; read-out: Percent Control
EPHA4 = EPHA4 (Homo sapiens (Human), UniProt P54764); assay: KINOMEscan scanMAX; type: binding; details: 2000 nM; read-out: Percent Control
EPHB4 = EPHB4 (Homo sapiens (Human), UniProt P54760); assay: KINOMEscan scanMAX; type: binding; details: 2000 nM; read-out: Percent Control
ERK1 (MAPK3) = ERK1 (MAPK3) (Homo sapiens (Human), UniProt P27361); assay: KINOMEscan scanMAX; type: binding; details: 2000 nM; read-out: Percent Control
ERK8 (MAPK15) = ERK8 (MAPK15) (Homo sapiens (Human), UniProt Q8TD08); assay: KINOMEscan scanMAX; type: binding; details: 2000 nM; read-out: Percent Control
FLT3(N841I) = FLT3(N841I) (Homo sapiens (Human), UniProt P36888, N841I); assay: KINOMEscan scanMAX; type: binding; details: 2000 nM; read-out: Percent Control
FLT4 = FLT4 (Homo sapiens (Human), UniProt P35916); assay: KINOMEscan scanMAX; type: binding; details: 2000 nM; read-out: Percent Control
FRK = FRK (Homo sapiens (Human), UniProt P42685); assay: KINOMEscan scanMAX; type: binding; details: 2000 nM; read-out: Percent Control
IRAK4 = IRAK4 (Homo sapiens (Human), UniProt Q9NWZ3); assay: KINOMEscan scanMAX; type: binding; details: 2000 nM; read-out: Percent Control
JNK3 (MAPK10) = JNK3 (MAPK10) (Homo sapiens (Human), UniProt P53779); assay: KINOMEscan scanMAX; type: binding; details: 2000 nM; read-out: Percent Control
LRRK2 = LRRK2 (Homo sapiens (Human), UniProt Q5S007); assay: KINOMEscan scanMAX; type: binding; details: 2000 nM; read-out: Percent Control
LZK (MAP3K13) = LZK (MAP3K13) (Homo sapiens (Human), UniProt O43283); assay: KINOMEscan scanMAX; type: binding; details: 2000 nM; read-out: Percent Control
MAP3K1 = MAP3K1 (Homo sapiens (Human), UniProt Q13233); assay: KINOMEscan scanMAX; type: binding; details: 2000 nM; read-out: Percent Control
MARK2 = MARK2 (Homo sapiens (Human), UniProt Q7KZI7); assay: KINOMEscan scanMAX; type: binding; details: 2000 nM; read-out: Percent Control
MEK5 (MAP2K5) = MEK5 (MAP2K5) (Homo sapiens (Human), UniProt Q13163); assay: KINOMEscan scanMAX; type: binding; details: 2000 nM; read-out: Percent Control
MYO3B = MYO3B (Homo sapiens (Human), UniProt Q8WXR4); assay: KINOMEscan scanMAX; type: binding; details: 2000 nM; read-out: Percent Control
p38-alpha (MAPK14) = p38-alpha (MAPK14) (Homo sapiens (Human), UniProt Q16539); assay: KINOMEscan scanMAX; type: binding; details: 2000 nM; read-out: Percent Control
PAK2 = PAK2 (Homo sapiens (Human), UniProt Q13177); assay: KINOMEscan scanMAX; type: binding; details: 2000 nM; read-out: Percent Control
PIM2 = PIM2 (Homo sapiens (Human), UniProt Q9P1W9); assay: KINOMEscan scanMAX; type: binding; details: 2000 nM; read-out: Percent Control
PIP5K1C = PIP5K1C (Homo sapiens (Human), UniProt O60331); assay: KINOMEscan scanMAX; type: binding; details: 2000 nM; read-out: Percent Control
PKAC-alpha (PRKACA) = PKAC-alpha (PRKACA) (Homo sapiens (Human), UniProt P17612); assay: KINOMEscan scanMAX; type: binding; details: 2000 nM; read-out: Percent Control
PLK1 = PLK1 (Homo sapiens (Human), UniProt P53350); assay: KINOMEscan scanMAX; type: binding; details: 2000 nM; read-out: Percent Control
PRKX = PRKX (Homo sapiens (Human), UniProt P51817); assay: KINOMEscan scanMAX; type: binding; details: 2000 nM; read-out: Percent Control
RIPK2 = RIPK2 (Homo sapiens (Human), UniProt O43353); assay: KINOMEscan scanMAX; type: binding; details: 2000 nM; read-out: Percent Control
SgK110 = SgK110 (Homo sapiens (Human), UniProt P0C264); assay: KINOMEscan scanMAX; type: binding; details: 2000 nM; read-out: Percent Control
SRPK2 = SRPK2 (Homo sapiens (Human), UniProt P78362); assay: KINOMEscan scanMAX; type: binding; details: 2000 nM; read-out: Percent Control
SRPK3 = SRPK3 (Homo sapiens (Human), UniProt Q9UPE1); assay: KINOMEscan scanMAX; type: binding; details: 2000 nM; read-out: Percent Control
STK16 = STK16 (Homo sapiens (Human), UniProt O75716); assay: KINOMEscan scanMAX; type: binding; details: 2000 nM; read-out: Percent Control
TAOK3 = TAOK3 (Homo sapiens (Human), UniProt Q9H2K8); assay: KINOMEscan scanMAX; type: binding; details: 2000 nM; read-out: Percent Control
TGFBR2 = TGFBR2 (Homo sapiens (Human), UniProt P37173); assay: KINOMEscan scanMAX; type: binding; details: 2000 nM; read-out: Percent Control
TNIK = TNIK (Homo sapiens (Human), UniProt Q9UKE5); assay: KINOMEscan scanMAX; type: binding; details: 2000 nM; read-out: Percent Control
ULK3 = ULK3 (Homo sapiens (Human), UniProt Q6PHR2); assay: KINOMEscan scanMAX; type: binding; details: 2000 nM; read-out: Percent Control
VRK2 = VRK2 (Homo sapiens (Human), UniProt Q86Y07); assay: KINOMEscan scanMAX; type: binding; details: 2000 nM; read-out: Percent Control
WNK2 = WNK2 (Homo sapiens (Human), UniProt Q9Y3S1); assay: KINOMEscan scanMAX; type: binding; details: 2000 nM; read-out: Percent Control
LNCaP-C4-2 cells = assay: PSA production (ELISA) in LNCaP-C4-2 cells; type: cell-based, human; details: 4 days treatment, conditioned media
Experimental: Prostate cancer LNCaP-C4-2 cells were treated with different concentrations of the compounds for 4 days and the conditioned media were collected for quantification of prostate specific antigen (PSA) with an ELISA kit.

Chain of AKT2 (P31751 whole entry): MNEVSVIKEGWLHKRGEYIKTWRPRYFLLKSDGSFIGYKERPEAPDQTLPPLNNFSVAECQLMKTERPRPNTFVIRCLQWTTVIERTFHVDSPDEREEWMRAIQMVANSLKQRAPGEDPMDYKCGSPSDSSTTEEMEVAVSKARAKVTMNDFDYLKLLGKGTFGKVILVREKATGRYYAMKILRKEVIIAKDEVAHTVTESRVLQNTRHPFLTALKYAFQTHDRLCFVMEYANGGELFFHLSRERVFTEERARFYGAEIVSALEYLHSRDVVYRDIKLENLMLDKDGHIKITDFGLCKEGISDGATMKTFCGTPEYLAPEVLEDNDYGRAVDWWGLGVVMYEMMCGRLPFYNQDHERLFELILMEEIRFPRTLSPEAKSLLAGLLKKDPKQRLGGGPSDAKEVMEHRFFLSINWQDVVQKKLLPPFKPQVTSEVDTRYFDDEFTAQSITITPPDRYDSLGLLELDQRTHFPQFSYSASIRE
Chain of JNK3 (MAPK10) (P53779 whole entry): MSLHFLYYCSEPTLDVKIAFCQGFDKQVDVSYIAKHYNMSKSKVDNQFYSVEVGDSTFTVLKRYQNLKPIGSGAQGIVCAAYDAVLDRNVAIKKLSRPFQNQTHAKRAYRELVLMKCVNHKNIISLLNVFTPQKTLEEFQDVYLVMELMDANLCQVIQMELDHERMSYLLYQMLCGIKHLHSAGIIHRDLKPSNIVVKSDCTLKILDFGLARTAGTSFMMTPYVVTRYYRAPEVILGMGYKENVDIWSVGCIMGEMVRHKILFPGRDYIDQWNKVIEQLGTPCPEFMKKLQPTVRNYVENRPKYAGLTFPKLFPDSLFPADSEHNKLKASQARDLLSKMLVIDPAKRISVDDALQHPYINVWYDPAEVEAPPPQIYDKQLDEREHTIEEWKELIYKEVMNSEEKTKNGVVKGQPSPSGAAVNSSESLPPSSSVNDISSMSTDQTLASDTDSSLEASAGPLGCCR
Chain of PAK2 (Q13177 whole entry): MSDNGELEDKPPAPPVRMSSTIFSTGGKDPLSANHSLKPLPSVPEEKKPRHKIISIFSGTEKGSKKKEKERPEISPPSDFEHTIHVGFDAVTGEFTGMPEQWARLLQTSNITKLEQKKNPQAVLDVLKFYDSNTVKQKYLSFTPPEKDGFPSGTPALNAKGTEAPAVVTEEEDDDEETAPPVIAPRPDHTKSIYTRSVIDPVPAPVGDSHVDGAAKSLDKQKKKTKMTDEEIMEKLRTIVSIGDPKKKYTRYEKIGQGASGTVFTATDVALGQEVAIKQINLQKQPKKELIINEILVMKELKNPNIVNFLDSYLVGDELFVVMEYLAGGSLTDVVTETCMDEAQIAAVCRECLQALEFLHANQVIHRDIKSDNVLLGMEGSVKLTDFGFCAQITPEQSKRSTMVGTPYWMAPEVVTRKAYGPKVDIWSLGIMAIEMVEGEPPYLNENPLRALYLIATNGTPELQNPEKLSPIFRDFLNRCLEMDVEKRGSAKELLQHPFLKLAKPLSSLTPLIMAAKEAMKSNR
Chain of ERK1 (MAPK3) (P27361 whole entry): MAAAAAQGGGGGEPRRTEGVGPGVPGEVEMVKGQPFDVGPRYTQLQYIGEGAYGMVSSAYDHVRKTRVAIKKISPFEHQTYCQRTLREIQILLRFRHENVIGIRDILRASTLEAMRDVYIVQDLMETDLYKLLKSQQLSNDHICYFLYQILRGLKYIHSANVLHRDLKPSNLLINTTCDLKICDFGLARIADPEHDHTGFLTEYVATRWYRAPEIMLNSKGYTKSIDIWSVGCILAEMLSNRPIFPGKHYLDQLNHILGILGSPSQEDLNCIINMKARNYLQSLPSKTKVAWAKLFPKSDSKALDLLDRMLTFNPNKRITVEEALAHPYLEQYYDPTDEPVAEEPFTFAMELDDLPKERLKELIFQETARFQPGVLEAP
Chain of LRRK2 (Q5S007 whole entry): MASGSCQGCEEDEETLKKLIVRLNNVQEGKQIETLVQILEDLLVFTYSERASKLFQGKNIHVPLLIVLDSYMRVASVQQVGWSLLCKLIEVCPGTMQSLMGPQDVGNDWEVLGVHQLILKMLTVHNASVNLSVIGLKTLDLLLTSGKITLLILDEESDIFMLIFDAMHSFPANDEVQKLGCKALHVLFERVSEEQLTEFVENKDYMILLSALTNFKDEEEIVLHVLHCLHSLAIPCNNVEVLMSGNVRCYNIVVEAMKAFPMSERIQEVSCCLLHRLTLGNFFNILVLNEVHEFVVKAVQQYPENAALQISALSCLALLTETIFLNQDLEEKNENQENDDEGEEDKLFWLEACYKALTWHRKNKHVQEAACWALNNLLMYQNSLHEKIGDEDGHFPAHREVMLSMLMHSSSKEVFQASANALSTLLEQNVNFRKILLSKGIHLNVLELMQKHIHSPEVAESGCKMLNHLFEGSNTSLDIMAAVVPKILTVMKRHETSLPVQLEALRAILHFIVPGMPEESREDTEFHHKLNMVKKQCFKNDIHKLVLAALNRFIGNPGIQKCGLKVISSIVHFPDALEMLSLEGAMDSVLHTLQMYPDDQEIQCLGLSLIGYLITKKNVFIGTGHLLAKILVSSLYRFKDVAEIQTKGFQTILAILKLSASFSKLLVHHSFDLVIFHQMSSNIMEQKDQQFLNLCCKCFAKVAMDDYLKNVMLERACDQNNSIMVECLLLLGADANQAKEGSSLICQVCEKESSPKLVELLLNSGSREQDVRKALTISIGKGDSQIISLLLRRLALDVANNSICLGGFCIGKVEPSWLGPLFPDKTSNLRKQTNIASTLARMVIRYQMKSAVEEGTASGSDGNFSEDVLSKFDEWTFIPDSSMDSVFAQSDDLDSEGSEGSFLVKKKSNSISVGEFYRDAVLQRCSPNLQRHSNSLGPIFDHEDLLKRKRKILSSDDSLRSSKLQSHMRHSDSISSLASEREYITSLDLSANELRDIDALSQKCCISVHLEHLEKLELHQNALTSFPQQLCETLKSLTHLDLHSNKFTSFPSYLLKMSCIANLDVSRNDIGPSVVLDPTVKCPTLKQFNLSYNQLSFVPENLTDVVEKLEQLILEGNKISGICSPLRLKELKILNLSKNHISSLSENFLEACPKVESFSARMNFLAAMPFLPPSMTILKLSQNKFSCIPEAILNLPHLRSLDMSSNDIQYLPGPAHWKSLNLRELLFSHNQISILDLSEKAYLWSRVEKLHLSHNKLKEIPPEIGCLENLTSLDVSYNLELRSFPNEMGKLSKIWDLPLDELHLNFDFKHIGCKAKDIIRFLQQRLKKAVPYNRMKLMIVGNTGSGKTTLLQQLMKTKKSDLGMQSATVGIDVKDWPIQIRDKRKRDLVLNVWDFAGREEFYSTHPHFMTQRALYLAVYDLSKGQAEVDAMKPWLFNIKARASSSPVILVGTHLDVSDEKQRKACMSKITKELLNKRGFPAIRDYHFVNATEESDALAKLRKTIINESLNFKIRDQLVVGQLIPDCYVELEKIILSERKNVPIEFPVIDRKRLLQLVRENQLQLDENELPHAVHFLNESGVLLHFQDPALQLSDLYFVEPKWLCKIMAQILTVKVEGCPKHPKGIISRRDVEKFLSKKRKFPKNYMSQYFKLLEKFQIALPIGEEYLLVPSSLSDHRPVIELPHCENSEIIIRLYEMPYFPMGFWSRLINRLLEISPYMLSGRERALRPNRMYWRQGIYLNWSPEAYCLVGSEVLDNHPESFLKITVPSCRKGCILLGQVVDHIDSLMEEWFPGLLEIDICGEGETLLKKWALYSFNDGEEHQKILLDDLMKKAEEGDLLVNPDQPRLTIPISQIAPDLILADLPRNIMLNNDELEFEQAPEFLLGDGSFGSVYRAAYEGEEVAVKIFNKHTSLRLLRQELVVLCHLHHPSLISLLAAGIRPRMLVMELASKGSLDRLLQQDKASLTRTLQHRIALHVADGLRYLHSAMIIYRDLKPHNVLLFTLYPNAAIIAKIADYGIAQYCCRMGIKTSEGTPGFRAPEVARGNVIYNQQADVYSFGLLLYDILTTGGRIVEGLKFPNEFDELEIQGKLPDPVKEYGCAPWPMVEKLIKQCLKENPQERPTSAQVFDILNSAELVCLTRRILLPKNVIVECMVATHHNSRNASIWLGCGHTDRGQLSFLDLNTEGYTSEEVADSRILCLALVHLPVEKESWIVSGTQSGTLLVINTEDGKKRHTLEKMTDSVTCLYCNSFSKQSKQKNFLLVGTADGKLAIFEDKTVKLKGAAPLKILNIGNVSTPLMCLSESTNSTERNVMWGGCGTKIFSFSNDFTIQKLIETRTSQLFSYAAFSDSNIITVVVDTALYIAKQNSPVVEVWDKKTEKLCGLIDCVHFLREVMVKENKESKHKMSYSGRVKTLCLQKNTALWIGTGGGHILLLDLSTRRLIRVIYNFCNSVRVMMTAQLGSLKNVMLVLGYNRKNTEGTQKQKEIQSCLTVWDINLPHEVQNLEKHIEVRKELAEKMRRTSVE
Chain of p38-alpha (MAPK14) (Q16539 whole entry): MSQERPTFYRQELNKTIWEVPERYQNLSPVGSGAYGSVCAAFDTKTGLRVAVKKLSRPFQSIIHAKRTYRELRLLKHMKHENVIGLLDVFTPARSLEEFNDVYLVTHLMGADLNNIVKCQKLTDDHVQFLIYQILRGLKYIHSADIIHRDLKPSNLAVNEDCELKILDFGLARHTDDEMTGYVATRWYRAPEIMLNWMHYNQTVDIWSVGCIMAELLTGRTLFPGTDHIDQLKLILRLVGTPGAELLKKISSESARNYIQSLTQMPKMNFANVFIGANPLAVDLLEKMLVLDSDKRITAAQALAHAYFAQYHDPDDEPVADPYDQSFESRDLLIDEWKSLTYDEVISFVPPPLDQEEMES
Chain of CSNK1A1L (Q8N752 whole entry): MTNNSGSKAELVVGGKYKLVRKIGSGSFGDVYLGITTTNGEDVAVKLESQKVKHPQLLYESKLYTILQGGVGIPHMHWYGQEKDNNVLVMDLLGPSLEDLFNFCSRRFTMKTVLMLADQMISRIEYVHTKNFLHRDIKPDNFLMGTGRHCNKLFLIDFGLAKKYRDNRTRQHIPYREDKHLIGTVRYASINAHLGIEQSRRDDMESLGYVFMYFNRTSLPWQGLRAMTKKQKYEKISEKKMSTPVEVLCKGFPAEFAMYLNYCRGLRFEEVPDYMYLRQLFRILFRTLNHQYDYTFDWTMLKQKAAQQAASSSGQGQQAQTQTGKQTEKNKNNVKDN

Compound `CN1CCN(C(=O)c2ccc3cc(CCNc4ccnc5ccc(C#N)cc45)ccc3c2)CC1` [compound 6148, 4-((2-(6-(4-methylpiperazine-1-carbonyl)naphthalen-2-yl)ethyl)amino)quinoline-6-carbonitrile] has a remaining binding at 2 µM (AKT2) of 100%, a remaining binding at 2 µM (CDK9) of 97% and a remaining binding at 2 µM (CSNK1A1L) of 88%. For the same compound, the remaining binding at 2 µM (DAPK1) was 100%, the remaining binding at 2 µM (DCAMKL3 (DCLK3)) was 96% and the remaining binding at 2 µM (DRAK2 (STK17B)) was 87%. The remaining binding at 2 µM (EPHA4) was 93%, the remaining binding at 2 µM (EPHB4) was 89% and the remaining binding at 2 µM (ERK1 (MAPK3)) was 95%. The remaining binding at 2 µM (ERK8 (MAPK15)) was 76%, the remaining binding at 2 µM (FLT3(N841I)) was 100% and the remaining binding at 2 µM (FLT4) was 97%. The remaining binding at 2 µM (FRK) was 92%, the remaining binding at 2 µM (IRAK4) was 67% and the remaining binding at 2 µM (JNK3 (MAPK10)) was 61%. For the same compound, the remaining binding at 2 µM (LRRK2) was 85%, the remaining binding at 2 µM (LZK (MAP3K13)) was 46% and the remaining binding at 2 µM (MAP3K1) was 78%. The remaining binding at 2 µM (MARK2) was 100%, the remaining binding at 2 µM (MEK5 (MAP2K5)) was 63% and the remaining binding at 2 µM (MYO3B) was 31%. The remaining binding at 2 µM (p38-alpha (MAPK14)) was 84%, the remaining binding at 2 µM (PAK2) was 84% and the remaining binding at 2 µM (PIM2) was 81%. For the same compound, the remaining binding at 2 µM (PIP5K1C) was 87%, the remaining binding at 2 µM (PKAC-alpha (PRKACA)) was 93% and the remaining binding at 2 µM (PLK1) was 63%. For the same compound, the remaining binding at 2 µM (PRKX) was 100%, the remaining binding at 2 µM (RIPK2) was 100% and the remaining binding at 2 µM (SgK110) was 91%. It also gave a remaining binding at 2 µM (SRPK2) of 94%, a remaining binding at 2 µM (SRPK3) of 96% and a remaining binding at 2 µM (STK16) of 71%. It also gave a remaining binding at 2 µM (TAOK3) of 79%, a remaining binding at 2 µM (TGFBR2) of 96% and a remaining binding at 2 µM (TNIK) of 89%. The remaining binding at 2 µM (ULK3) was 70%, the remaining binding at 2 µM (VRK2) was 58% and the remaining binding at 2 µM (WNK2) was 59%. For the same compound, the “Potency in inhibition of PSA production relative to Senexin B” value (LNCaP-C4-2 cells) was roughly 3 fold.
